Assay results reported in paper PMC3884839, “Pharmacokinetics and pharmacodynamics utilizing unbound target tissue exposure as part of a disposition-based rationale for lead optimization of benzoxaboroles in the treatment of Stage 2 Human African Trypanosomiasis” (Parasitology, 2013).
Read-outs that look alike come from different tables or passages of the source.

Legend:
L929 mammalian cell line = experiment: L929 mammalian cell cytotoxicity / selectivity; assay type: cell-based; settings: parasite vs L929
[1] = Binding to human plasma protein by rapid equilibrium dialysis; assay type: in vitro ADME; settings: 1 μg mL^−1
Procedure: Binding to plasma proteins, brain homogenates or proteins in serum-fortified HMI-9 media was determined by rapid equilibrium dialysis (RED) (Pierce, Rockford, IL) using a 48-well plate-based format according to the manufacturer's instructions. Briefly, test compound was added to fresh plasma (Bioreclamation, Liverpool, NY) at the required concentrations, freshly prepared brain homogenate or media. Duplicate aliquots of each sample were transferred into the sample chambers of the RED devices, and dialysis buffer (BupH PBS) was added to the buffer chambers. The plates were sealed and incubated at 37 °C for 4 h. After dialysis, samples collected from the buffer and tissue chambers were treated with ice-cold methanol (3 volumes for plasma or HMI-9 media, 4 volumes for brain) to precipitate proteins. The treated samples were centrifuged for 10 min at approximately 3000 g at 15 °C. The supernatants were assayed for test compound by LC-MSMS. Calibration standards and quality control samples were prepared in matched matrix and assayed with samples. Values for unbound and bound fractions and mass balance were calculated. Concordance of binding for each batch of plasma was confirmed by assay of warfarin, imipramine and carbamezapine. Acceptance criterion for mass balance was 70–120%.

[2] = system: MDCKII-hMDR1 monolayer (Pgp efflux transporter); experiment: MDCKII-hMDR1 monolayer permeability and Pgp-mediated efflux; assay type: in vitro ADME; settings: for Mass balance A–B+GF918 / Mass balance A–B: 3 μM; for Mass balance A–B+GF918: with GF918; for Mass balance A–B: without GF918
Procedure: (§1) The propensity of test compounds to cross the BBB was examined using an in vitro MDCKII-hMDR1 monolayer assay (Polli et al. [2001]). In summary, MDCKII-hMDR1 cells (Netherlands Cancer Institute, Amsterdam, the Netherlands) were seeded at a density of 3×10^5 cells per well onto microporous polycarbonate membranes in 12 well Costar Transwell plates (Corning Inc., Lowell, MA). The cells were incubated for 3 days during which time they formed confluent monolayers. Trans-epithelial resistance (TEER) was measured for each insert to ensure the integrity of the monolayer (acceptable TEER >160 Ω cm^2). The permeability and susceptibility for Pgp-mediated efflux was evaluated by adding each compound at a concentration of 3 μM, in the presence or absence of 2 μM GF120918 (a potent Pgp inhibitor), to the apical compartment. Competency of the Pgp efflux transporter was confirmed by assay of propranolol (non-substrate) and amprenavir (substrate). Cell monolayers were incubated in triplicate with shaking (160 rpm) at 37 °C in a 5% CO2-enriched humidified atmosphere for 1 h. Samples were removed from the apical and basolateral compartments after incubation and assayed for test compound concentrations by LC-MSMS. Values for mass balance, PappA−B, PappA−B+GF918, and absorption quotient (AQ) were calculated for each compound (Troutman and Thakker, [2003]; Thiel-Demby et al. [2004]). Acceptance criterion for mass balance was 70–120%.

P-gp (human MDR1) = experiment: as above; assay type: in vitro ADME; settings: dog, 3 μM
Procedure: as §1

[3] = Single oral dose pharmacokinetics and CNS penetration in male CD-1 mice; assay type: in vivo, mouse
Procedure: The CNS disposition and pharmacokinetics of the benzoxaboroles were evaluated in infected and uninfected mice following oral administration. In vivo phases of single-dose rodent PK studies were performed at Vivisource (Waltham, MA) following Institutional Animal Care and Use Committee (IACUC) review in an Association for Assessment and Accreditation of Laboratory Animal Care International (AAALAC)-approved facility. Studies in Trypanosoma brucei brucei (TREU 667 strain) infected mice, or uninfected satellite animals, were performed after IACUC review at Pace University (NewYork, NY).
Male CD-1 or female Swiss Webster mice (approximately 25 g) were administered test compounds by oral gavage either once (QD) or twice per day (Q12 h) with doses ranging between 6 and 100 mg kg^−1 as described below. All compounds were formulated as an in situ sodium salt in 2% (v/v) ethanol, 5% (m/v) dextrose, to yield typically clear colourless solutions that were administered at 4 mL kg^−1. Blood samples for pharmacokinetic studies were collected into polypropylene tubes containing K2EDTA anticoagulant and stored on wet ice until centrifuged and processed to plasma. Plasma was stored at −80 °C. Blood samples from mice were collected via cardiac puncture under terminal anaesthesia. Rodents were euthanized in a CO2 chamber before collection of terminal blood or tissue samples. Brain tissues were blotted dry and stored at approximately −80 °C.
Plasma (50 μL) was treated with 4 volumes of ice-cold methanol (containing 25 ng mL^−1 of either deuterium (d6)-labelled SCYX-7158 internal standard (SCYX-5232) for SCYX-7158 analyses or a related benzoxaborole for other compounds) to precipitate proteins. Treated samples were gently mixed on a 96-well plate shaker for approximately 10 min then centrifuged at approximately 3000 g and 15 °C for 15 min. Supernatants were transferred to fresh 96-well plates for analysis by means of LC-MSMS. Samples of tissue homogenate (50 μL), or buffer from protein binding studies, were treated similarly to plasma samples.
All biological samples were assayed by a verified LC-MSMS method employing two dimensional chromatographic separation to overcome ion suppression (Annesely, [2003]) caused by co-elution of endogenous components with benzoxaboroles. In summary, treated samples were loaded onto Phenomenex (Torrance, CA) Synergi Polar RP, 4 μ, 50×2 mm extraction columns and subsequently back-eluted onto a Phenomenex Luna C8(2) 3 μ, 50×2 mm analytical columns protected by a Phenomenex C8 guard cartridge. Mobile phases for extraction and analytical columns consisted of 5 mM ammonium formate and 0·1% (v/v) formic acid in water (A), and 5 mM ammonium formate and 0·1% (v/v) formic acid in methanol (B). […]

T. b. brucei (TREU 667) = experiment: Murine model of Stage 2 (CNS) HAT; assay type: in vivo, mouse; settings: oral administration
Procedure: The efficacy of benzoxaboroles was evaluated in a murine model of Stage 2 (CNS) HAT (Nare et al. [2010]; Jacobs et al. [2011]). In summary, mice (n = 10 per group) were infected by bolus i.p. injection of 1×10^4 T. b. brucei (TREU 667) parasites. A single bolus i.p. dose (10 mg kg^-1) of berenil (Sigma-Aldrich, St. Louis, MO) was administered on day 4 as a positive treatment control for haemolymphatic-stage infection. Infection of the remaining animals proceeded for 21 days to establish a CNS infection before treatment with either a single dose of berenil (as above) or test compounds by the oral route either once or twice daily over 7 days at the doses indicated below. Animals were checked at least weekly for parasitaemia and were immediately removed from cages and euthanized upon recrudescence. Animals were considered cured if they were […] for at least 180 days after treatment.

T. brucei = settings: cited from earlier work
[4] = cited from earlier work
[5] = intravenous 2·2–3·6 mg kg^−1, uninfected vervet monkeys; ref Burri et al. [1994]; cited from earlier work
[6] = human patients, 24 h after last injection of multi-day regimen; ref Burri and Keiser, [2001]; cited from earlier work
[7] = set-up: method as in Sanderson et al. [2008]; settings: mice; ref Sanderson et al. [2008]; cited from earlier work
[8] = set-up: method as in Milford et al. [1993]; settings: human patients; ref Milford et al. [1993]; cited from earlier work
T. b. brucei = experiment: Serum-shift assay (effect of foetal calf serum on trypanocidal IC50); assay type: cell-based, Trypanosoma brucei brucei; settings: 72 h, relative to 2·5% serum
Procedure: To assess the potential effects of protein binding on trypanocidal activity, parasite viability assays were performed in the presence of increasing concentrations (2·5–50%) of foetal calf serum (Invitrogen, Carlsbad, CA) in HMI-9 media. T. b. brucei parasites were conditioned to the test serum concentrations for at least one round of passage prior to assay. Test compounds were added, incubated for 72 h, signal measured and IC50 determinations were conducted as described above using the resazurin endpoint. The fold change in IC50 from minimal serum concentration to maximal serum concentration was calculated and used to compare compounds and their potential for being restrictively protein bound.

[9] = MDCK-MDR1, with GF120918 2 μM, with 2 μM GF120918, read-out: Papp, A–B direction+GF918
[10] = MDCK-MDR1, read-out: Papp, A–B direction

With `O=C(Nc1ccc2c(c1)B(O)OC2)c1ccc(F)cc1C(F)(F)F` [SCYX-6759] as the compound, how does the Selectivity (L929 mammalian cell line) read?
The Selectivity was “⩾136”.

And the Mass balance [1]?
The Mass balance was 97%.

And the P-gp classification [2]?
The P-gp classification was “Non-substrate”.

And the “Mass balance A–B+GF918” value [2]?
Its value is 95%.

What about the “Mass balance A–B” value [2] of the same compound?
The value was 89%.

And the Papp A→B at 1 h, 3 μM (P-gp (human MDR1); [9])?
Its Papp A→B at 1 h, 3 μM is 38.6 ×10⁻⁶ cm/s.

And the Papp A→B at 1 h, 3 μM (P-gp (human MDR1); [10])?
The Papp A→B at 1 h, 3 μM was 37.9 ×10⁻⁶ cm/s.

What about the “time CNS (brain) total concentration above MIC” value [3] of the same compound?
Its value is “approximately 10 h”.

And the “cures in the CNS (Stage 2) murine model” value (T. b. brucei (TREU 667))?
Its value is 100%.

Which “in vitro MIC” value (T. brucei; ref Burri et al. [1994]) does the source give for `Nc1nc(N)nc(Nc2ccc([As]3SCC(CO)S3)cc2)n1` (stereo not shown) [melarsoprol] here?
The value was 2 to 100 ng/mL.

What about the “drug-induced death, patients” value ([4]; Stage 2 HAT patients, ref Schmid et al. [2004], Doua et al. [2005], Kuepfer et al. [2012]) of the same compound?
The value was 2–10%.

And the “failure rate with treatment” value ([4]; ref Legros et al. [1999])?
The value was 3–30%.

What about the “maximum concentration in CSF” value [5] of the same compound?
The value was ~50 ng/mL.

What about the CSF concentration [6] of the same compound?
Its CSF concentration is 39 to 79 ng/mL.

For `NCCCC(N)(C(=O)O)C(F)F` (stereo not shown) [eflornithine], which “in vitro MIC” value (T. brucei; ref Sanderson et al. [2008]) is on record?
Its value is “ca. 50 μM”.

And the “maximum concentration (CNS exposure)” value [7]?
The value was 10 to 40 nM.

What about the “CSF level at steady state” value [8] of the same compound?
The value was 5 to 150 nM.

With `Cc1ccc(C(=O)Nc2ccc(S(=O)(=O)O)c3cc(S(=O)(=O)O)cc(S(=O)(=O)O)c23)cc1NC(=O)c1cccc(NC(=O)Nc2cccc(C(=O)Nc3cc(C(=O)Nc4ccc(S(=O)(=O)O)c5cc(S(=O)(=O)O)cc(S(=O)(=O)O)c45)ccc3C)c2)c1` [suramin] as the compound, how does the “fold change in IC50 between 2·5 and 50% calf serum” value (T. b. brucei) read?
The value was 26 fold.

For `[O-][S+](c1ccc(Cl)cc1)c1ccc2c(c1)B(O)OC2` (stereo not shown) [AN2920], which Selectivity (L929 mammalian cell line) is on record?
The Selectivity was “⩾49”.

And the Mass balance [1]?
The Mass balance was 106%.

And the P-gp classification [2]?
Its P-gp classification is “Non-substrate”.

And the “Mass balance A–B+GF918” value [2]?
The value was 99%.

What about the “Mass balance A–B” value [2] of the same compound?
Its value is 94%.

What about the Papp A→B at 1 h, 3 μM (P-gp (human MDR1); [9]) of the same compound?
The Papp A→B at 1 h, 3 μM was 46.5 ×10⁻⁶ cm/s.

What about the Papp A→B at 1 h, 3 μM (P-gp (human MDR1); [10]) of the same compound?
The Papp A→B at 1 h, 3 μM was 43.8 ×10⁻⁶ cm/s.

And the “time CNS (brain) total concentration above MIC” value [3]?
Its value is 1 h.

And the “time plasma concentration maintained above MIC” value ([3]; total concentration)?
Its value is “approximately 7 h”.

Which Selectivity (L929 mammalian cell line) does the source give for `O=C(Nc1ccc2c(c1)B(O)OC2)c1ccccc1C(F)(F)F` [AN3520] here?
The Selectivity was “⩾94”.

And the Mass balance [1]?
The Mass balance was 110%.

What about the P-gp classification [2] of the same compound?
Its P-gp classification is “Non-substrate”.

What about the “Mass balance A–B+GF918” value [2] of the same compound?
The value was 90%.

What about the “Mass balance A–B” value [2] of the same compound?
The value was 92%.

What about the Papp A→B at 1 h, 3 μM (P-gp (human MDR1); [9]) of the same compound?
The Papp A→B at 1 h, 3 μM was 43.4 ×10⁻⁶ cm/s.

What about the Papp A→B at 1 h, 3 μM (P-gp (human MDR1); [10]) of the same compound?
Its Papp A→B at 1 h, 3 μM is 42.4 ×10⁻⁶ cm/s.
